# Experimental data taken from patent US5952368A, “5-aroylpyrrol-2-ylmethylarene derivatives” (Syntex (U.S.A.) Inc., priority 1997, dated 1999).
# pIC50: −log10 of the molar value.
# Legend:
# air pouch PGE2 formation = experiment: Inhibition of eicosanoid (PGE2) synthesis in vivo: carrageenan air-pouch model in rats; parameters: species or system rat; details: oral, male rats
# Procedure: In this assay, an air-pouch is created in the rat and the PGE2 levels in the air-pouch exudate are measured by enzyme immunoassay. Briefly, male rats were anesthetized using a 60:40 CO2 :O2 mixture and subsequently injected subcutaneously with 20 ml of sterilized air, under aseptic conditions, in the proximal area of the dorsum. This injection of sterile air causes the creation of a subcutaneous "air pouch". The next day, a further 10 ml of sterile air was injected into the previously formed pouch using the same technique. […] Control rats received vehicle alone. After 30 minutes, 5 ml of a 0.5% solution of carrageenan (Sigma, Lambda Type IV) was injected into the air pouch. The rats were euthanized 3 or 6 h after the compound administration. […] The total exudate volume was recorded, and the samples were analyzed for PGE2 and 6-keto PGF1 by ELISA (Titerzyme®, PerSeptive Diagnostics) and TxB2 by radioimmuno assay (New England Nuclear Research, Catalog No. NEK-037), according to the manufacturer's directions.
# The mean concentrations of PGE2 were calculated for each group. The anti-inflammatory activity of test materials is expressed as the percent inhibition of PGE2 formation in the test group relative to the control group.
# [1] = tested on: cognitive decline of Alzheimer's patients; details: cited from earlier work
# COX I = molecular target: T1, COX I (Homo sapiens, UniProt P23219); experiment: Inhibition of COX I in vitro (radiometric assay, 14C arachidonic acid, partially purified enzyme); assay type: biochemical; details: partially purified COX I, 20 micromolar arachidonic acid, 10 min preincubation, room temperature; read-out: COX I IC50
# T1 construct: made in house; baculovirus-infected insect cells by own knowledge of the cited Barnett et al. 1994
# T1 sequence (P23219 24-599): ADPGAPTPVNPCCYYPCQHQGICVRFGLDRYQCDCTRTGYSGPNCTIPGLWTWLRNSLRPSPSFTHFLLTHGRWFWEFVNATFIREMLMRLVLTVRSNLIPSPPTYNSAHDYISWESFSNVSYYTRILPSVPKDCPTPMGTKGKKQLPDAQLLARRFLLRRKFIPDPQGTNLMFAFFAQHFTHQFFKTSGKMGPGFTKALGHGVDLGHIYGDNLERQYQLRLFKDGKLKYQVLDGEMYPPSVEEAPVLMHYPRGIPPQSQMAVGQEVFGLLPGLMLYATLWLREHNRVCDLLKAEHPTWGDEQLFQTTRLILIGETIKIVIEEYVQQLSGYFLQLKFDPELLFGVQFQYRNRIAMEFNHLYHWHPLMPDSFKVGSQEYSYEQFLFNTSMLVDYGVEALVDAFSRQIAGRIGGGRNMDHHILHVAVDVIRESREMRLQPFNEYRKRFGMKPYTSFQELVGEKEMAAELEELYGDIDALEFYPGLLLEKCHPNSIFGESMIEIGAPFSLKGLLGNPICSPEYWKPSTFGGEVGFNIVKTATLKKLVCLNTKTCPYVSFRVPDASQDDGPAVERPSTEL
# Procedure: (§1) The COX I and COX II inhibitory activity of compounds of this invention in vitro was determined using partially purified COX I and COX II enzymes, prepared as described in J. Barnett et al., Biochim. Biophys. Acta, 1209:130--139 (1994).
# (§2) COX I and COX II samples were diluted with Tris-HCl buffer (50 mM Tris-HCl pH 7.9) containing 2 mM EDTA and 10% glycerol and reconstituted by incubating first with 2 mM phenol for 5 minutes and then with 1 micromolar hematin for an additional 5 minutes. 125 μl of the reconstituted COX I or COX II enzyme were preincubated for 10 minutes at room temperature in a shaking water bath with the compounds of the invention dissolved in 2-15 μl of DMSO or the carrier vehicles (control samples). The enzyme reaction was initiated by adding 25 μl of 1-[14C] arachidonic acid (80,000-100,000 cpm/tube; 20 micromolar final concentration) and the reaction was allowed to continue for an additional 45 seconds. The reaction was terminated by adding 100 μl of 2N HCl and 750 μl water. An aliquot (950 μl) of the reaction mixture was loaded onto a 1 ml C18 Sep-Pak column (J. T. Baker, Phillipsburg, N.J.) which had been previously washed with 2-3 ml methanol and equilibrated with 5-6 ml distilled water. Oxygenated products were quantitatively eluted with 3 ml of acetonitrile/water/acetic acid (50:50:0.1, v/v) and the radioactivity in the eluate determined in a scintillation counter.
# COX II = molecular target: T2, COX II (Homo sapiens, UniProt P35354); experiment: Inhibition of COX II in vitro (radiometric assay, 14C arachidonic acid, partially purified enzyme); assay type: biochemical; details: partially purified COX II, 20 micromolar arachidonic acid, 10 min preincubation, room temperature; read-out: COX II IC50
# T2 construct: made in house; baculovirus-infected insect cells by own knowledge of the cited Barnett et al. 1994
# T2 sequence (P35354 18-604): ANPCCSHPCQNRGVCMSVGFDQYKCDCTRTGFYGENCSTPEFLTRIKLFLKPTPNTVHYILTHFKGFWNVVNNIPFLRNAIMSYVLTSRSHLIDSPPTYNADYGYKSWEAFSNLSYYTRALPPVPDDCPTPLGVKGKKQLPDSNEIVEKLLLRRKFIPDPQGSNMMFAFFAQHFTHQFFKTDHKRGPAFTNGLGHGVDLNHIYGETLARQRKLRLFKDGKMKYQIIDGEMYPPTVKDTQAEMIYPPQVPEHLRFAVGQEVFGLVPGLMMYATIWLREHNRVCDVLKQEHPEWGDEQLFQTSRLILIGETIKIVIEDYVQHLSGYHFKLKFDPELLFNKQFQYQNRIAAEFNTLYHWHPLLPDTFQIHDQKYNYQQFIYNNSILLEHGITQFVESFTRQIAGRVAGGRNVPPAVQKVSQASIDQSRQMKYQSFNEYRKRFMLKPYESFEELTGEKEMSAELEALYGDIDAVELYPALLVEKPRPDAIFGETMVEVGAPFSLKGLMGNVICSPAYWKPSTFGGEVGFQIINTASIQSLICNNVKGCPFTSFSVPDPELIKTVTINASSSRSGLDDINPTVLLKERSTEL
# Procedure: as §1, §2
# [2] = tested on: carrageenan-induced paw edema; experiment: Anti-inflammatory activity: inhibition of carrageenan-induced paw edema in the rat; assay type: in vivo; details: 10 mg/Kg, oral, female rats, 3 h after carrageenan
# Procedure: The anti-inflammatory activity of compounds of this invention was determined by measuring the inhibition of carrageenan-induced paw edema in the rat, using a modification of the method described in Winter C. A. et al. (1962) "Carrageenan-Induced Edema in Hind Paw of the Rat as an Assay for Anti-inflammatory Drugs". Proc. Soc. Exp. Biol. Med. 111: 544-547. This assay has been used as a primary in vivo screen for anti-inflammatoryactivity of most NSAIDs, and is considered predictive of human efficacy. Briefly, test materials were administered orally to female rats in a volume of 1 ml prepared as solutions or suspensions in an aqueous vehicle containing 0.9% NaCl, 0.5% sodium carboxymethyl-cellulose, 0.4% polysorbate 80, 0.9% benzyl alcohol and 97.3% distilled water. Control rats received vehicle alone. After 1 h 0.05 ml of a 0.5% solution of Carrageenan (Type IV Lambda, Sigma Chemical Co.) in 0.9% saline was injected into the subplantar region of the right hind paw. Three hours later the rats were euthanized in a carbon dioxide atmosphere; hind paws were removed by severing at the tatso-crural joint; and the left and right paws were weighed. The increase in weight of the right paw over the left paw was obtained for each animal and the mean increases were calculated for each group. The anti-inflammatory activity of the test materials is expressed as the percent inhibition of the increase in hind paw weight of the test group relative to the vehicle-dosed control group.
# [3] = tested on: acetic acid-induced writhing; experiment: Analgesic activity: Acetic Acid-induced Rat Writhing Assay; assay type: in vivo; details: 10 mg/Kg, oral, male Sprague Dawley rats
# From the text: The analgesic activity of compounds of this invention may be determined by the Acetic Acid-induced Rat Writhing Assay, using a modification of the method described in Berkenkopf, J. W. and Weichman, B. M. "Production of Prostacyclin in Mice following Intraperitoneal Injection of Acetic Acid, Phenylbenzoquinone and Zymosan: Its Role in the Writhing Response" Prostaglandins: 36: 693-70 (1988). This assay is one of several acute assays which have been used to assess the analgesic activity of NSAIDs, and is considered predictive of human efficacy. The test materials were administered orally to male Sprague Dawley rats in a volume of 1 ml/100 g body weight as solutions or suspensions in an aqueous vehicle containing 0.9% NaCl 0.5% sodium carboxymethyl-cellulose, 0.4% polysorbate 80, 0.9% benzyl alcohol and 97.3% water. Control rats received vehicle alone. One hour after compound administration, 0.3 ml/100 g body weight of 0.75% solution of acetic acid was injected intraperitoneally. The acetic acid injection induces a series of characteristic writhing responses, which were counted over the period between 15 and 30 minutes after the injection. The analgesic activity of test materials is expressed as the percentage inhibition of writhing in the test group relative to the control group.
SMILES,pIC50 (COX I),pIC50 (COX II),"% Inhibition of air pouch PGE2 formation (air pouch PGE2 formation; 2-5 mg/Kg, time not given) [%]",effect on cognitive decline of Alzheimer's patients (in words) [1],% Inhibition (of the increase in hind paw weight) [2] [%],"% Inhibition of air pouch PGE2 formation (air pouch PGE2 formation; 10 mg/Kg, 3 hr) [%]",% Inhibition of writhing responses [3] [%],"% Inhibition of air pouch PGE2 formation (air pouch PGE2 formation; 30 mg/Kg, 3 hr) [%]","% Inhibition of air pouch PGE2 formation (air pouch PGE2 formation; 30 mg/Kg, 6 hr) [%]"
"COc1ccc2c(c1)c(CC(=O)O)c(C)n2C(=O)c1ccc(Cl)cc1 [Indomethacin, indomethacin, reference compound]",,,> 70,inhibit the cognitive decline of Alzheimer's patients,,,,,
"Cc1cc(Cc2ccc(NS(C)(=O)=O)cc2C#N)n(C)c1C(=O)c1ccc(Cl)cc1 [compound 19, N-{3-Cyano-4-[5-(4-chlorobenzoyl)-1,4-dimethyl-1H-pyrrol-2-ylmethyl]phenyl}-methanesulfonamide]",6.12,7.10,,,36,74,,,
"Cc1ccc(C(=O)c2ccc(Cc3ccc(NS(=O)(=O)CCO)cc3F)n2C)cc1 [compound 36, N-{3-Fluoro-4-[5-(4-methylbenzoyl)-1-methyl-1H-pyrrol-2-ylmethyl]phenyl}-2-(hydroxy)ethanesulfonamide]",5.00,7.30,,,31,96,16,,
"Cc1ccc(C(=O)c2ccc(Cc3ccc(NS(=O)(=O)CCO)cc3F)n2C)c(C)c1 [compound 48, N-{3-Fluoro-4-[5-(2,4-dimethylbenzoyl)-1-methyl-1H-pyrrol-2-ylmethyl]phenyl}-2-(hydroxy)ethanesulfonamide]",4.21,7.10,,,35,,,64,
"COc1ccc(C(=O)c2c(C)cc(Cc3ccc(NS(=O)(=O)CCO)cc3F)n2C)cc1 [compound 98, N-{3-Fluoro-4-[5-(4-methoxybenzoyl)-1,4-dimethyl-1H-pyrrol-2-ylmethyl]phenyl}-2-(hydroxy)ethanesulfonamide]",> 7.00,6.64,,,42,98,71,,
"Cc1cc(Cc2ccc(NS(=O)(=O)N(C)C)cc2)n(C)c1C(=O)c1ccc(Cl)cc1 [compound 140, 1-{4-[5-(4-Chlorobenzoyl)-1,4-dimethyl-1H-pyrrol-2-ylmethyl]phenyl}-3,3-di-methylsulfamide]",5.27,6.92,,,27,,4,,83
"Cc1cc(Cc2ccc(NS(N)(=O)=O)cc2F)n(C)c1C(=O)c1ccc(Cl)cc1 [compound 146, 1-{3-Fluoro-4-[5-(4-chlorobenzoyl)-1,4-dimethyl-1H-pyrrol-2-ylmethyl]phenyl}sulfamide]",5.54,7.22,,,40,93,,,
"Cc1ccc(C(=O)c2ccc(Cc3ccc(NS(N)(=O)=O)cc3F)n2C)c(C)c1 [compound 165, 1-{3-Fluoro-4-[5-(2,4-dimethylbenzoyl)-1-methyl-1H-pyrrol-2-ylmethyl]phenyl}sulfamide]",4.77,7.02,,,17,52,,,
"Cc1cc(Cc2ccc(NS(C)(=O)=O)cn2)n(C)c1C(=O)c1ccc(Cl)cc1 [compound 263, N-{2-[5-(4-Chlorobenzoyl)-1,4-dimethyl-1H-pyrrol-2-ylmethyl]pyridin-5-yl}-methanesulfonamide]",4.31,6.35,,,40,,31,,80

# More lines, main results first:
pIC50 (COX I),pIC50 (COX II),SMILES,"% Inhibition of air pouch PGE2 formation (air pouch PGE2 formation; 2-5 mg/Kg, time not given) [%]",effect on cognitive decline of Alzheimer's patients (in words) [1],% Inhibition (of the increase in hind paw weight) [2] [%],"% Inhibition of air pouch PGE2 formation (air pouch PGE2 formation; 10 mg/Kg, 3 hr) [%]",% Inhibition of writhing responses [3] [%],"% Inhibition of air pouch PGE2 formation (air pouch PGE2 formation; 30 mg/Kg, 3 hr) [%]","% Inhibition of air pouch PGE2 formation (air pouch PGE2 formation; 30 mg/Kg, 6 hr) [%]"
4.05,6.37,"Cc1ccc(C(=O)c2ccc(Cc3ccc(NS(C)(=O)=O)cn3)n2C)cc1 [compound 271, N-{2-[5-(4-Methylbenzoyl)-1-methyl-1H-pyrrol-2-ylmethyl]pyridin-5-yl}methane-sulfonamide]",,,,56,,,
4.66,6.30,"COc1ccc(C(=O)c2c(C)cc(Cc3ncc(NS(C)(=O)=O)cc3Cl)n2C)cc1 [compound 284, N-{3-Chloro-2-[5-(4-methoxybenzoyl)-1,4-dimethyl-1H-pyrrol-2-ylmethyl]pyridin-5-yl}-methanesulfonamide]",,,,65,,,
3.63,6.26,"COc1ccc(C(=O)c2ccc(Cc3ccc(NS(C)(=O)=O)cn3)n2C)cc1 [compound 288, N-{2-[5-(4-Methoxybenzoyl)-1-methyl-1H-pyrrol-2-ylmethyl]pyridin-5-yl}-methanesulfonamide]",,,20,53,,,
4.74,6.19,"CSc1ccc(C(=O)c2c(C)cc(Cc3ccc(N)cn3)n2C)cc1 [compound 334, {2-[5-(4-Methylthiobenzoyl)-1,4-dimethyl-1H-pyrrol-2-ylmethyl]pyridin-5-yl}amine]",,,,44,,,
5.18,6.27,"Cc1cc(Cc2ccc(O)cc2)n(C)c1C(=O)c1ccc(Cl)cc1 [compound 343, 4-{5-(4-Chlorobenzoyl)-1,4-dimethyl-1H-pyrrol-2-ylmethyl}phenol]",,,35,,,,
